Results taken from patent US9809574B2, “Isoindoline or isoquinoline compounds, a process for their preparation and pharmaceutical compositions containing them” (LES LABORATOIRES SERVIER, priority 2013, dated 2017).

Columns and labels:
Bcl-2 protein = Bcl-2 protein (histag-Bcl-2, UniProtKB P10415) (Homo sapiens (Human), UniProt P10415); assay: Inhibition of Bcl-2 by the fluorescence polarisation technique; assay type: binding; details: fluorescence polarisation test; incubation for 2 hours; read-out: IC50 (nM) Bcl-2 FP
Excerpt: For partial inhibitors, the percentage fluorescence polarisation inhibition for a given concentration of the test compound is indicated.

[1] = test system: RS4; 11 leukaemia cell line; assay: In vitro cytotoxicity, Microculture Tetrazolium Assay (MTT); assay type: cell-based; details: Homo sapiens, 11 cells exposed for 48 hours
Experimental: The cytotoxicity studies were carried out on the RS4; 11 leukaemia cell line and on H146 small Cell Lung Carcinoma cell line. The cells are distributed onto microplates and exposed to the test compounds for 48 hours. The cell viability is then quantified by a colorimetric assay, the Microculture Tetrazolium Assay (Cancer Res., 1987, 47, 939-942).

Sequence of Bcl-2 protein (P10415 whole entry): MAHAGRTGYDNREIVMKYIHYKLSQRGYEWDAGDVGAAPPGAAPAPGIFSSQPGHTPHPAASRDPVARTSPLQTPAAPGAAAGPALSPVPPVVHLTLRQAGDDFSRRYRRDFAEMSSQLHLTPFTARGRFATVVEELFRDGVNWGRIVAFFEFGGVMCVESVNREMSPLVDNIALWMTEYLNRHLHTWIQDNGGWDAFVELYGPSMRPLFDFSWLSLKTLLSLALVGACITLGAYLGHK

IC50 (Bcl-2 protein)	SMILES	IC50 [1]
2.2 nM	Cc1c(C(=O)N(C)c2ccc(O)cc2)cc(-c2cc3c(cc2C(=O)N2Cc4ccccc4C[C@H]2C)CN(C(=O)Oc2cccc(C(=O)O)c2)CC3)n1C [Example 715, 3-(6-{4-[(4-Hydroxyphenyl)(methyl)carbamoyl]-1,5-dimethyl-1H-pyrrol-2-yl}-7-[(3R)-3-methyl-1,2,3,4-tetrahydroisoquinoline-2-carbonyl]-1,2,3,4-tetrahydroisoquinoline-2-carbonyloxy)benzoic acid]	> 150 nM
2.2 nM	Cc1c(C(=O)N(C)c2ccc(O)cc2)cc(-c2cc3c(cc2C(=O)N2Cc4ccccc4C[C@H]2C)CN(C(=O)Oc2cccc(CCC(=O)N(C)C)c2)CC3)n1C [Example 776, 3-[2-(Dimethylcarbamoyl)ethyl]phenyl 6-{4-[(4-hydroxyphenyl)(methyl)carbamoyl]-1,5-dimethyl-1H-pyrrol-2-yl}-7-[(3R)-3-methyl-1,2,3,4-tetrahydroisoquinoline-2-carbonyl]-1,2,3,4-tetrahydroisoquinoline-2-carboxylate]	1.1 nM
4.1 nM	Cc1c(C(=O)N(C)c2ccc(O)cc2)cc(-c2cc3c(cc2C(=O)N2Cc4ccccc4C[C@H]2CN(C)C)CN(C(=O)Cc2ccccc2)CC3)n1C [Example 777, 5-{7-[(3S)-3-[(Dimethylamino)methyl]-1,2,3,4-tetrahydroisoquinoline-2-carbonyl]-2-(2-phenylacetyl)-1,2,3,4-tetrahydroisoquinolin-6-yl}-N-(4-hydroxyphenyl)-N,1,2-trimethyl-1H-pyrrole-3-carboxamide]	30 nM
3.1 nM	Cc1c(C(=O)N(C)c2ccc(O)cc2)cc(-c2cc3c(cc2C(=O)N2Cc4ccccc4C[C@H]2CN2CCN(C)CC2)CN(C(=O)Cc2ccccc2)CC3)n1C [Example 778, N-(4-Hydroxyphenyl)-N,1,2-trimethyl-5-{7-[(3S)-3-[(4-methylpiperazin-1-yl)methyl]-1,2,3,4-tetrahydroisoquinoline-2-carbonyl]-2-(2-phenylacetyl)-1,2,3,4-tetrahydroisoquinolin-6-yl}-1H-pyrrole-3-carboxamide]	52 nM
2.9 nM	Cc1c(C(=O)N(C)c2ccc(O)cc2)cc(-c2cc3c(cc2C(=O)N2Cc4ccccc4C[C@H]2CCN2CCOCC2)CN(C(=O)Cc2ccccc2)CC3)n1C [Example 779, N-(4-Hydroxyphenyl)-N,1,2-trimethyl-5-{7-[(3S)-3-[2-(morpholin-4-yl)ethyl]-1,2,3,4-tetrahydroisoquinoline-2-carbonyl]-2-(2-phenylacetyl)-1,2,3,4-tetrahydroisoquinolin-6-yl}-1H-pyrrole-3-carboxamide]	24 nM
3.5 nM	CCN(C(=O)c1cc(-c2cc3c(cc2C(=O)N2Cc4ccccc4C[C@H]2CN2CCOCC2)CN(C(=O)Cc2ccccc2)CC3)n(C)c1C)c1ccc(O)cc1 [Example 780, N-Ethyl-N-(4-hydroxyphenyl)-1,2-dimethyl-5-{7-[(3S)-3-(morpholin-4-ylmethyl)-1,2,3,4-tetrahydroisoquinoline-2-carbonyl]-2-(2-phenylacetyl)-1,2,3,4-tetrahydroisoquinolin-6-yl}-1H-pyrrole-3-carboxamide]	17 nM
2.6 nM	CCCN(C(=O)c1cc(-c2cc3c(cc2C(=O)N2Cc4ccccc4C[C@H]2CN2CCOCC2)CN(C(=O)Cc2ccccc2)CC3)n(C)c1C)c1ccc(O)cc1 [Example 781, N-(4-Hydroxyphenyl)-1,2-dimethyl-5-{7-[(3S)-3-(morpholin-4-ylmethyl)-1,2,3,4-tetrahydroisoquinoline-2-carbonyl]-2-(2-phenylacetyl)-1,2,3,4-tetrahydroisoquinolin-6-yl}-N-propyl-1H-pyrrole-3-carboxamide]	9.7 nM
51 nM	Cc1c(C(=O)N(C)c2ccc(O)cc2)cc(-c2cc3c(cc2C(=O)N2Cc4ccccc4C[C@H]2CN(C)C)CN(C(=O)C(F)(F)F)CC3)n1C [Example 782, 5-{7-[(3S)-3-[(Dimethylamino)methyl]-1,2,3,4-tetrahydroisoquinoline-2-carbonyl]-2-(trifluoroacetyl)-1,2,3,4-tetrahydroisoquinolin-6-yl}-N-(4-hydroxyphenyl)-N,1,2-trimethyl-1H-pyrrole-3-carboxamide]	112 nM
23 nM	Cc1c(C(=O)N(C)c2ccc(O)cc2)cc(-c2cc3c(cc2C(=O)N2Cc4ccccc4C[C@H]2CN2CCN(C)CC2)CN(C(=O)C(F)(F)F)CC3)n1C [Example 783, N-(4-Hydroxyphenyl)-N,1,2-trimethyl-5-{7-[(3S)-3-[(4-methylpiperazin-1-yl)methyl]-1,2,3,4-tetrahydroisoquinoline-2-carbonyl]-2-(trifluoroacetyl)-1,2,3,4-tetrahydroisoquinolin-6-yl}-1H-pyrrole-3-carboxamide]	> 150 nM
3.3 nM	Cc1ccc(OC(=O)N2CCc3cc(-c4cc(C(=O)N(C)c5ccccc5)c(C)n4C)c(C(=O)N4Cc5ccccc5C[C@H]4C)cc3C2)cc1 [Example 785, 4-Methylphenyl 6-{1,5-dimethyl-4-[methyl(phenyl)carbamoyl]-1H-pyrrol-2-yl}-7-[(3R)-3-methyl-1,2,3,4-tetrahydroisoquinoline-2-carbonyl]-1,2,3,4-tetrahydroisoquinoline-2-carboxylate]	7.8 nM

Continued, compound first:

SMILES	IC50 (Bcl-2 protein)	IC50 [1]
Cc1c(C(=O)N(C)c2ccccc2)cc(-c2cc3c(cc2C(=O)N2Cc4ccccc4C[C@H]2CN2CCOCC2)CN(C(=O)Oc2cnc4c(ccn4C)c2)CC3)n1C [Example 634, 1-Methyl-1H-pyrrolo[2,3-b]pyridin-5-yl 6-{1,5-dimethyl-4-[methyl(phenyl)carbamoyl]-1H-pyrrol-2-yl}-7-[(3S)-3-(morpholin-4-ylmethyl)-1,2,3,4-tetrahydroisoquinoline-2-carbonyl]-1,2,3,4-tetrahydroisoquinoline-2-carboxylate]	6.9 nM	21 nM
Cc1c(C(=O)N(C)c2ccccc2)cc(-c2cc3c(cc2C(=O)N2Cc4ccccc4C[C@H]2C)CN(C(=O)Oc2cnc4[nH]ccc4c2)CC3)n1C [Example 636, 1H-Pyrrolo[2,3-b]pyridin-5-yl 6-{1,5-dimethyl-4-[methyl(phenyl)carbamoyl]-1H-pyrrol-2-yl}-7-[(3R)-3-methyl-1,2,3,4-tetrahydroisoquinoline-2-carbonyl]-1,2,3,4-tetrahydroisoquinoline-2-carboxylate]	11 nM	34 nM
Cc1c(C(=O)N(C)c2ccc(O)cc2)cc(-c2cc3c(cc2C(=O)N2Cc4ccccc4C[C@H]2CN2CCOCC2)CN(C(=O)Oc2cccc(C(=O)O)c2)CC3)n1C [Example 709, 3-(6-{4-[(4-Hydroxyphenyl)(methyl)carbamoyl]-1,5-dimethyl-1H-pyrrol-2-yl}-7-[(3S)-3-(morpholin-4-ylmethyl)-1,2,3,4-tetrahydroisoquinoline-2-carbonyl]-1,2,3,4-tetrahydroisoquinoline-2-carbonyloxy)benzoic acid]	4.8 nM	> 150 nM
Cc1c(C(=O)N(C)c2ccc(O)cc2)cc(-c2cc3c(cc2C(=O)N2Cc4ccccc4C[C@H]2CN2CCOCC2)CN(C(=O)Oc2ccc(C(=O)O)cc2)CC3)n1C [Example 721, 4-(6-{4-[(4-Hydroxyphenyl)(methyl)carbamoyl]-1,5-dimethyl-1H-pyrrol-2-yl}-7-[(3S)-3-(morpholin-4-ylmethyl)-1,2,3,4-tetrahydroisoquinoline-2-carbonyl]-1,2,3,4-tetrahydroisoquinoline-2-carbonyloxy)benzoic acid]	4.9 nM	> 150 nM
Cc1c(C(=O)N(C)c2ccc(O)cc2)cc(-c2cc3c(cc2C(=O)N2Cc4ccccc4C[C@H]2CN2CCN(C)CC2)CN(C(=O)Oc2cccc(C(=O)O)c2)CC3)n1C [Example 733, 3-(6-{4-[(4-Hydroxyphenyl)(methyl)carbamoyl]-1,5-dimethyl-1H-pyrrol-2-yl}-7-[(3S)-3-[(4-methylpiperazin-1-yl)methyl]-1,2,3,4-tetrahydroisoquinoline-2-carbonyl]-1,2,3,4-tetrahydroisoquinoline-2-carbonyloxy)benzoic acid]	1.5 nM	> 150 nM
Cc1c(C(=O)N(C)c2ccccc2)cc(-c2cc3c(cc2C(=O)N2Cc4ccccc4C[C@H]2CN2CCN(C)CC2)CN(C(=O)Oc2cccc(C(=O)O)c2)CC3)n1C [Example 735, 3-(6-{1,5-Dimethyl-4-[methyl(phenyl)carbamoyl]-1H-pyrrol-2-yl}-7-[(3S)-3-[(4-methylpiperazin-1-yl)methyl]-1,2,3,4-tetrahydroisoquinoline-2-carbonyl]-1,2,3,4-tetrahydroisoquinoline-2-carbonyloxy)benzoic acid]	12 nM	> 150 nM
Cc1c(C(=O)N(C)c2ccc(O)cc2)cc(-c2cc3c(cc2C(=O)N2Cc4ccccc4C[C@H]2C)CN(C(=O)Oc2ccccc2CCC(=O)N(C)C)CC3)n1C [Example 775, 2-[2-(Dimethylcarbamoyl)ethyl]phenyl 6-{4-[(4-hydroxyphenyl)(methyl)carbamoyl]-1,5-dimethyl-1H-pyrrol-2-yl}-7-[(3R)-3-methyl-1,2,3,4-tetrahydroisoquinoline-2-carbonyl]-1,2,3,4-tetrahydroisoquinoline-2-carboxylate]	2.4 nM	6.3 nM
Cc1c(C(=O)N(C)c2ccc(O)cc2)cc(-c2cc3c(cc2C(=O)N2Cc4ccccc4C[C@H]2CN2CCOCC2)CN(C(=O)Oc2ccc(Br)cc2)CC3)n1C [Example 784, 4-Bromophenyl 6-{4-[(4-hydroxyphenyl)(methyl)carbamoyl]-1,5-dimethyl-1H-pyrrol-2-yl}-7-[(3S)-3-(morpholin-4-ylmethyl)-1,2,3,4-tetrahydroisoquinoline-2-carbonyl]-1,2,3,4-tetrahydroisoquinoline-2-carboxylate]	5.1 nM	2.9 nM
